Measurements reported in patent publication US9957268B2, “1H-pyrrolo[2,3,c]pyridin-7(6H)-ones and pyrazolo[3,4-c]pyridin-7(6H)-ones as inhibitors of BET proteins” (Incyte Corporation, priority 2014, dated 2018).

What was measured:
BRD4-BD2 = BRD4-BD2 (Homo sapiens (Human), UniProt O60885); assay: BRD4 AlphaScreen assay (BRD4-BD2); assay type: binding; conditions: biotin-labeled tetra-acetylated histone H4 peptide
Summary of the method: (§1)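 AlphaScreen displacement at room temperature: 75 min with biotin-H4Ac4 peptide (50 nM) and sub-nanomolar BRD4-BD1 or BD2, then 75 min dark incubation with donor/acceptor beads (2-4 μg/mL). Buffer Tris-HCl pH 7.5 with Tween-20, BSA, DTT; DMSO 1.25% for BD1, 0.83% for BD2. IC50 by curve fitting.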

KMS.12.BM cells = assay: KMS.12.BM cell viability assay (ATP quantitation, Cell Titer-GLO); assay type: cell-based; conditions: human myeloma cell line, 3 days, concentration required for 50% cell death
Method: KMS. 12.BM cell line (human myeloma) was purchased from JCRB (Osaka, Japan) and maintained in RPMI with 10% FBS culture medium. To measure the cytotoxic activity of the compounds through ATP quantitation, the KMS. 12.BM cells are plated in the RPMI culture medium at 5000 cells/well/per 100 μL into a 96-well polystyrene clear black tissue culture plate (Greiner-bio-one through VWR, NJ), in the presence or absence of a concentration range of test compounds. After 3 days, […] Cell Titer-GLO Luminescent (Promega, Madison, Wis.) cell culture agent is added to each well for 10 minutes at room temperature to stabilize the luminescent signal. This determines the number of viable cells in culture based on quantitation of the ATP present, which signals the presence of metabolically active cells. Luminescence is measured with the Top Count 384 (Packard Bioscience through Perkin Elmer, Boston, Mass.). Compound inhibition is determined relative to cells cultured with no drug and the IC50 is reported as the compound concentration required for 50% cell death.

BRD4-BD1 = BRD4-BD1 (Homo sapiens (Human), UniProt O60885); assay: BRD4 AlphaScreen assay (BRD4-BD1); assay type: binding; conditions: biotin-labeled tetra-acetylated histone H4 peptide
Summary of the method: as §1

`COc1cc(-c2cn(C)c(=O)c3[nH]ccc23)c2c(c1)N(C(C)C)C(=O)C(C(C)C)O2` (stereo not drawn) [Example 16, 2,4-diisopropyl-6-methoxy-8-(6-methyl-7-oxo-6,7-dhydro-1H-pyrrolo[2,3-c]pyridin-4-yl)-2H-1,4-benzoxazin-3(4H)-one] gave an IC50 (BRD4-BD2) of […], an IC50 (KMS.12.BM cells) of no more than 1000 nM and an IC50 (BRD4-BD1) of […].
